This is an account of results in PMC5663706, “Diversity oriented biosynthesis via accelerated evolution of modular gene clusters” (Nature Communications, 2017).

For experiment [1], the system named is mTORC1 pathway (p-S6 formation).
The next experiment concerns Saccharomyces cerevisiae. Put plainly: Saccharomyces cerevisiae MIC assay (microdilution). The experiment is classed as cell-based. Conditions: RPMI 1640 broth, 37 °C, 24 h, read-out: S. cerevisiae MIC. The protocol:
We additionally assessed the rapalogs for antifungal activity using a standard Saccharomyces cerevisiae MIC assay. As expected, activity was similar to that observed for the mTORC1 pathway assay, likely through inhibition of TOR1 and TOR2.
Minimum Inhibitory Concentration (MIC) values for each compound were determined using the microdilution method. Briefly, stock solutions of the 6 test rapalogs (6.4 mg mL^−1 in methanol) were diluted 1:50 in RPMI 1640 broth (Sigma-Aldrich) to a working concentration of 128 µg ml^−1, and serially diluted in broth (1:2) in sterile, polypropylene 96-well plates, 100 µL per well. Saccharomyces cerevisiae was cultured in RPMI 1640 broth, 37 °C, 250 r.p.m., 18 h. […] A volume of 100 µL aliquots of this dilution were added to each well and mixed by gentle trituration. Plates were incubated at 37 °C for 24 h. The concentration of compound at which no visible growth was apparent was determined to be the MIC.

The next experiment has as its target FKBP12 (Homo sapiens, UniProt P62942). Nature of the experiment: FKBP12 PPIase inhibition assay. The conditions noted are these: 10 °C, pH 8.0, 6 nM FKBP12, 60 µM SUC-ALPF-pNA, read-out: FKBP12 K i. Format: biochemical.
Experiment [2] deals with human macrophages challenged with B. pseudomallei. The experiment is classed as cell-based.

Sequence of FKBP12 (P62942 whole entry, species assumed): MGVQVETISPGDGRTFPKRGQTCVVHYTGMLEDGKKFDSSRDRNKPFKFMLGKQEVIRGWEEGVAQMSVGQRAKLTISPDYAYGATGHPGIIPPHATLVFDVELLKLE

As to `COC1CC2CCC(C)C(O)(CC(=O)N3CCCCC3C(=O)OC(C(C)CC3CCC(O)CC3)CC(=O)C(C)CC(C)C=CC=CC=C1C)O2` (stereo not shown) [Compound 5], the IC50 (usually the concentration needed to halve the response being measured) in experiment [1] is 300 nM. Also, the MIC – broadly, the smallest concentration in the dilution series that meets the test's criterion for growth inhibition – in the experiment with Saccharomyces cerevisiae was less than 64 µg/mL. Further, at FKBP12, the Ki stood at 370 nM.

With `CO[C@H]1C[C@@H]2CC[C@@H](C)[C@@](O)(O2)C(=O)C(=O)N2CCCC[C@H]2C(=O)O[C@H]([C@H](C)C[C@H]2CC[C@H](O)CC2)CC(O)CC(=O)[C@H](C)/C=C(\C)[C@@H](O)CC(=O)[C@H](C)C[C@H](C)/C=C/C=C/C=C/1C` (stereo partly shown) [Compound 8], in the experiment with Saccharomyces cerevisiae, the minimal inhibitory concentration (MIC) is less than 2 µg/mL. For the same molecule, the Ki on FKBP12 came to 6.5 nM.

Take `COC1CC2CCC(C)C(O)(O2)C(=O)C(=O)N2CCCCC2C(=O)OC(C(C)CC2CCC(O)CC2)CC=C(C)C(O)CC(=O)C(C)CC(C)C=CC=CC=C1C` (stereo not shown) [Compound 7]: in experiment [2], the “survival of human macrophages challenged with B. pseudomallei” value is “increase the survival”. In addition, the midpoint of inhibition in experiment [1], the IC50, lay at 100 nM. For the same molecule, in the experiment with Saccharomyces cerevisiae, the minimum inhibitory concentration (MIC) is less than 2 µg/mL. Also, the Ki on FKBP12 was 7.9 nM.

In experiment [1], `C\C1=C/C=C/C=C/[C@@H](C)C[C@@H](C)C(=O)[C@H]2CC[C@@H](CC2)OC(=O)[C@@H]2CCCCN2C(=O)C(=O)[C@]2(O)O[C@@H](CC[C@H]2C)C[C@@H]1O` [Compound 3] had an IC50 greater than 1900 nM. In addition, in the experiment with Saccharomyces cerevisiae, the MIC was greater than 64 µg/mL. The Ki on FKBP12 came to 460 nM.

With `COC1CC2CCC(C)C(O)(O2)C(=O)C(=O)N2CCCCC2C(=O)OC(C(C)CC2CCC(O)CC2)CC(=O)C(C)C=C(C)C(O)C(OC)C(=O)C(C)CC(C)C=CC=CC=C1C` (stereo not shown) [Compound 1, 39-desmethoxyrapamycin], the minimal inhibitory concentration (MIC) in the experiment with Saccharomyces cerevisiae is less than 0.25 µg/mL. Moreover, the Ki on FKBP12 is 2.5 nM.

Turning to `COC(CC1CCC(C)C(O)(CC(=O)N2CCCCC2C(=O)O)O1)C(C)=CC=CC=CC(C)CC1CCC(O)CC1` (stereo not shown) [Compound 2], in experiment [1], the IC50 is 1000 nM. For the same molecule, in the experiment with Saccharomyces cerevisiae, the MIC was greater than 64 µg/mL. At FKBP12, the Ki was greater than 1000 nM.

In the case of `CO[C@H]1C[C@@H]2CC[C@@H](C)[C@@](O)(O2)C(=O)C(=O)N2CCCC[C@H]2C(=O)O[C@H]([C@H](C)C[C@@H]2CC[C@@H](O)[C@H](OC)C2)CC(=O)[C@H](C)/C=C(\C)[C@@H](O)[C@@H](OC)C(=O)[C@H](C)C[C@H](C)/C=C/C=C/C=C/1C` [Rapamycin, reference compound], in experiment [1], the 50% inhibitory concentration (IC50) was less than 1 nM. Besides, the MIC in the experiment with Saccharomyces cerevisiae is less than 0.25 µg/mL.
